Test results: patent US11878975B2, “Substituted indole compounds useful as TLR inhibitors” (BRISTOL-MYERS SQUIBB COMPANY, priority 2017, dated 2024)

Columns and labels:
Assay type in all cases: cell-based
human TLR9 = target: T1, human TLR9 (Homo sapiens, UniProt Q9NR96); experiment: TLR9 inhibition reporter assay (HEK-Blue cells, SEAP reporter, ODN2006 stimulation); settings: HEK-Blue cells overexpressing human TLR9, SEAP reporter, ODN2006 5 nM
T1 construct: host or cells: HEK-Blue cells
T1 sequence (Q9NR96 26-1032): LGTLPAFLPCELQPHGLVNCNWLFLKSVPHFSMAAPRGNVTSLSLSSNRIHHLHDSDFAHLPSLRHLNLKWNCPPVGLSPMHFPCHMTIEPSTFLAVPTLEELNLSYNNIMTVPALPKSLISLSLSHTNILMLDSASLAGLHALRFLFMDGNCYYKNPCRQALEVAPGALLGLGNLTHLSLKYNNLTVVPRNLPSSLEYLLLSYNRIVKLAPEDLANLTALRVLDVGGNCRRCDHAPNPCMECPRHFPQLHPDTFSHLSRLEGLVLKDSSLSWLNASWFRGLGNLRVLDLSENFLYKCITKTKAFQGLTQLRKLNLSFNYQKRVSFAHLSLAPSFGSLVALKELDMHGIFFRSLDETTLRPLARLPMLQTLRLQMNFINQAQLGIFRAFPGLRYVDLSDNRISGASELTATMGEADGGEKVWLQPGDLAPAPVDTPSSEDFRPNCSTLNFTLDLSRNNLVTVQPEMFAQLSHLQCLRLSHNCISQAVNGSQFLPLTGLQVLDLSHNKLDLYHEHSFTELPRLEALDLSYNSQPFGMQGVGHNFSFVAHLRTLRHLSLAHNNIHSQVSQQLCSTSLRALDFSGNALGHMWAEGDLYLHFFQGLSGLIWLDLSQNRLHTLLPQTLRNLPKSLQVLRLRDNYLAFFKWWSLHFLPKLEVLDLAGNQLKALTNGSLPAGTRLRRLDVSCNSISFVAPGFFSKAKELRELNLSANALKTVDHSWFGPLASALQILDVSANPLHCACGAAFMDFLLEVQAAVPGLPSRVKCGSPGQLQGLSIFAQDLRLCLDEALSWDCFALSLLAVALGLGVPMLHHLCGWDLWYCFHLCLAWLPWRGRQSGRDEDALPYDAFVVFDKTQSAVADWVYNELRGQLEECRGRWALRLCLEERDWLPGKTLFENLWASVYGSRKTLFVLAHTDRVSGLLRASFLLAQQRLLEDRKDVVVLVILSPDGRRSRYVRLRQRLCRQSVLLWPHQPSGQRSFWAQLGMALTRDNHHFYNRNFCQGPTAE
Procedure, shortened: (§1)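 Dose range 0.05 nM–50 μM; 30 min preincubation, RT. Agonists: TLR7 gardiquimod 7.5 μM, TLR8 R848 15.9 μM, TLR9 ODN2006 5 nM. 22 h, 37 °C, 5% CO2. SEAP (IFN-β minimal promoter with NF-κB/AP-1 sites) via colorimetric detection medium; % inhibition vs agonist+DMSO and reference-inhibitor wells.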

human TLR7 = target: T2, human TLR7 (Homo sapiens, UniProt Q9NYK1); experiment: TLR7 inhibition reporter assay (HEK-Blue cells, SEAP reporter, gardiquimod stimulation); settings: HEK-Blue cells overexpressing human TLR7, SEAP reporter, gardiquimod 7.5 μM
T2 construct: host or cells: HEK-Blue cells
T2 sequence (Q9NYK1 27-1049): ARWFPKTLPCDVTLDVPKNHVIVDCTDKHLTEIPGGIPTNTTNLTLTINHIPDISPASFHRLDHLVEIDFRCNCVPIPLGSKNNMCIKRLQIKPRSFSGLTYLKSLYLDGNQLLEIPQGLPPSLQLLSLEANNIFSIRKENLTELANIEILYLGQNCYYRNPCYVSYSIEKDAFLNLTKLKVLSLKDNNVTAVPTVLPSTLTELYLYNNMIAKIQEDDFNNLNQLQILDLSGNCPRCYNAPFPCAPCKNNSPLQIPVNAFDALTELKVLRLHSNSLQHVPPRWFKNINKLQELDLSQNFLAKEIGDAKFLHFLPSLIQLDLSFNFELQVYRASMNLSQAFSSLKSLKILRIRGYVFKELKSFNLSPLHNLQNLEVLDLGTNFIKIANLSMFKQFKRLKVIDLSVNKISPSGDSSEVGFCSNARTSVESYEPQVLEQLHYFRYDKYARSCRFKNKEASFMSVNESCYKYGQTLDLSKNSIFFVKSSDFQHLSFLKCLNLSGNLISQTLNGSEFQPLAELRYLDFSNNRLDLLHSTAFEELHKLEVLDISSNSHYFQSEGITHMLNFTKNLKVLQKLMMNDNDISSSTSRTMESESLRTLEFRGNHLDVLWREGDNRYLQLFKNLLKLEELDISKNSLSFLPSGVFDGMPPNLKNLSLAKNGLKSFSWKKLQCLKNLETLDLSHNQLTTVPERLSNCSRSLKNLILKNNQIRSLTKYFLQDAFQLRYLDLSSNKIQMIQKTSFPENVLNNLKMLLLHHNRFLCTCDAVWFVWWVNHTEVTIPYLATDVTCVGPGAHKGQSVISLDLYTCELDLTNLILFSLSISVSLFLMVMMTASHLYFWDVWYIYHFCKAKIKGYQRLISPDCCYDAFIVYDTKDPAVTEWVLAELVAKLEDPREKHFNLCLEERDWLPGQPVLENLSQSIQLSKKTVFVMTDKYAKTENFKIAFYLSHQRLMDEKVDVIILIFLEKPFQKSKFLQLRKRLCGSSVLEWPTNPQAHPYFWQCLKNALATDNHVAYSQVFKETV
Procedure, shortened: as §1

human TLR8 = target: T3, human TLR8 (Homo sapiens, UniProt Q9NR97); experiment: TLR8 inhibition reporter assay (HEK-Blue cells, SEAP reporter, R848 stimulation); settings: HEK-Blue cells overexpressing human TLR8, SEAP reporter, R848 15.9 μM
T3 construct: host or cells: HEK-Blue cells
T3 sequence (Q9NR97 27-1041): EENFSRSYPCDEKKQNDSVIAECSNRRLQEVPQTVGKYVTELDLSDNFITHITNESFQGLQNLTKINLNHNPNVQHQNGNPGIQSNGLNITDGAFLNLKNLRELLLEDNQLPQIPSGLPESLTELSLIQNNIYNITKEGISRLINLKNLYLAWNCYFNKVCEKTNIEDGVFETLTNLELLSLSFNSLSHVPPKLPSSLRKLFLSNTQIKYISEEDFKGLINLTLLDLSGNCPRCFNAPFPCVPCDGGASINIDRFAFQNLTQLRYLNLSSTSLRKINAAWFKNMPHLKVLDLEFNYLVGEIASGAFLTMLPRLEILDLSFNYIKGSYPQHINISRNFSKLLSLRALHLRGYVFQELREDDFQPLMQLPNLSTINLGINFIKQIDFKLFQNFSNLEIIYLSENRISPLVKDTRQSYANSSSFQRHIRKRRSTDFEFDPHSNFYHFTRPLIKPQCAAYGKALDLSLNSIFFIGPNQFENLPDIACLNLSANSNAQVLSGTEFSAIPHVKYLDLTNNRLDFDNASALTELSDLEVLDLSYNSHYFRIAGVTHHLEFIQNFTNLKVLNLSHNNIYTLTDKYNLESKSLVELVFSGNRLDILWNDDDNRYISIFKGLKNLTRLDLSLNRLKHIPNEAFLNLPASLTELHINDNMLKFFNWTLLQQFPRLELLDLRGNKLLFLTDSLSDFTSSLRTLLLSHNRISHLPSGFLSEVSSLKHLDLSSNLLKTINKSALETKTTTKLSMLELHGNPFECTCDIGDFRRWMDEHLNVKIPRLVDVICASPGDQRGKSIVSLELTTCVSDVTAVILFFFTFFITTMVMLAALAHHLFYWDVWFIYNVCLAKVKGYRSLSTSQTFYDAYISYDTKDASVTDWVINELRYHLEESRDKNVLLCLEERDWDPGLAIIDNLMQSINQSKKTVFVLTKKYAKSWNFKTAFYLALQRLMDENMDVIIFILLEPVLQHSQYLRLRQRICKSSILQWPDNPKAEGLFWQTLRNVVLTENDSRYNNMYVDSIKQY
Procedure, shortened: as §1

Row | Compound | IC50 (human TLR9) [µM] | IC50 (human TLR7) [µM] | IC50 (human TLR8) [µM]
1 | CC(C)c1c(-c2ccnc3[nH]ncc23)[nH]c2ccc(C(C)C3CCNCC3)cc12 (stereo not drawn) [Example 423] | 2.08 | 0.034 | 0.016
2 | COc1cc(-c2[nH]c3ccc(C4CN(C5COC5)C(C)(C)CO4)cc3c2C(C)C)cn2ncnc12 (stereo not drawn) [Example 378] | > 50 | 0.05 | 0.176
3 | Cc1cc(-c2[nH]c3ccc(C4CCCN(C(=O)C5(C)COC5)C4)cc3c2C(C)C)cc(C)n1 (stereo not drawn) [Example 204] | > 50 | 0.004 | 0.055
4 | CNC1CCC(c2ccc3[nH]c(-c4cn5cnnc5c(C)c4C)c(C(C)C)c3c2)CC1 (stereo not drawn) [Example 530] | 0.696 | 0.002 | 0.012
5 | CNC(=O)CNC1CCC(c2ccc3[nH]c(-c4cc(C)c5ncnn5c4)c(C(C)C)c3c2)CC1 (single isomer, unassigned) [Example 163, 2-((4-(3-isopropyl-2-(8-methyl-[1,2,4]triazolo[1,5-a]pyridin-6-yl)-1H-indol-5-yl)cyclohexyl)amino)-N-methylacetamide] | 2.24 | 0.00063 | 0.00064
6 | Cc1cc(-c2[nH]c3ccc(C4CN(CC(=O)N(C)C)CCO4)cc3c2C(C)C)cn2ncnc12 (single isomer, unassigned) [Example 316] | > 50 | 0.009 | 0.055
7 | COc1cc(-c2[nH]c3ccc(CCN4CCN(C)CC4)cc3c2C(C)C)cn2ncnc12 [Example 413] | 2.75 | 0.002 | 0.0009
8 | Cc1c(-c2[nH]c3ccc(C4CNC(C)(C)CO4)cc3c2C(C)C)cn2ncnc2c1C (stereo not drawn) [Example 371] | 15.5 | 0.00092 | 0.0013
9 | COc1cc(-c2[nH]c3ccc(C4CCC(N(C)C(C)C)CC4)cc3c2C(C)C)cn2ncnc12 (single isomer, unassigned) [Example 6, N-isopropyl-4-(3-isopropyl-2-(8-methoxy-[1,2,4]triazolo[1,5-a]pyridin-6-yl)-1H-indol-5-yl)-N-methylcyclohexanamine] | 1.21 | 0.00033 | 0.001
10 | COc1cc(-c2[nH]c3ccc(C4CCCNC4)cc3c2C(C)C)cn2ncnc12 (single isomer, unassigned) [Example 182] | 2.37 | 0.001 | 0.0053
11 | Cc1c(-c2[nH]c3ccc(C4CCCN(C(=O)CN(C)C)C4)cc3c2C(C)C)cn2ncnc2c1C (stereo not drawn) [Example 193] | 6.42 | 0.001 | 0.0029
12 | COc1cc(-c2[nH]c3ccc(C4CCC(N5CC(F)(F)C5)CC4)cc3c2C(C)C)cn2ncnc12 (stereo not drawn) [Example 19] | 29.2 | 0.026 | 0.218
13 | CCN(C)CC(=O)N1CCOC(c2ccc3[nH]c(-c4cc(OC)c5ncnn5c4)c(C(C)C)c3c2)C1 (stereo not drawn) [Example 359, 2-(ethyl(methyl)amino)-1-(2-(3-isopropyl-2-(8-methoxy-[1,2,4]triazolo[1,5-a]pyridin-6-yl)-1H-indol-5-yl)morpholino)ethanone] | 3.63 | 0.00056 | 0.0047
14 | COc1cc(-c2[nH]c3ccc(CC4CNC4)cc3c2C(C)C)cn2ncnc12 [Example 430] | 0.86 | 0.012 | 0.041
15 | Cc1cc(-c2[nH]c3ccc(C4CN(CC5(C)COC5)CCO4)cc3c2C(C)C)cn2ncnc12 (stereo not drawn) [Example 292] | 34.2 | 0.022 | 0.0028
16 | Cc1cc(-c2[nH]c3ccc(C4CCC(N5CCC(F)(F)CC5)CC4)cc3c2C(C)C)cn(C)c1=O (stereo not drawn) [Example 465] | > 50 | 0.003 | 0.0033
17 | Cc1cc(-c2[nH]c3ccc(C4CCC(N(C)C)CC4)cc3c2C(C)C)cc(C)n1 (single isomer, unassigned) [Example 53] | 0.6 | 0.00055 | 0.0029
18 | CNC1CCC(c2ccc3[nH]c(-c4cc(C)nc(C)c4)c(C(C)C)c3c2)CC1 (single isomer, unassigned) [Example 51] | 0.602 | 0.004 | 0.011
19 | CCc1c(-c2ccnc(C)c2)[nH]c2ccc(CN)cc12 [Example 394, [3-ethyl-2-(2-methylpyridin-4-yl)-1H-indol-5-yl]methanamine] | 2.59 | 2.56 | 1.08
20 | CNCC(=O)N1CCCC(c2ccc3[nH]c(-c4cc(OC)c5ncnn5c4)c(C(C)C)c3c2)C1 (stereo not drawn) [Example 211, 1-(3-(3-isopropyl-2-(8-methoxy-[1,2,4]triazolo[1,5-a]pyridin-6-yl)-1H-indol-5-yl)piperidin-1-yl)-2-(methylamino)ethan-1-one] | 8.01 | 0.003 | 0.011
21 | COc1cc(-c2[nH]c3ccc(C4CCCNC4)cc3c2C(C)C)cn2ncnc12 (stereo not drawn) [Example 181, 6-(3-isopropyl-5-(piperidin-3-yl)-1H-indol-2-yl)-8-methoxy-[1,2,4]triazolo[1,5-a]pyridine] | 1.21 | 0.0004 | 0.0028
